Measured values: patent US8999983B2, “Modulators of Hec1 activity and methods therefor” (Taivex Therapeutics Corporation, priority 2011, dated 2015)
Like-named read-outs stand apart in the source and are kept apart here.

Tests used:
[1] = test system: K562; assay: Antiproliferation assay (MTS), K562 cells; assay type: cell-based; conditions: Homo sapiens, K562, 96 h, Table 1, read-out: Antiproliferative IC50 K562
Description: (§1) Cells were grown at 37° C. in a humidified atmosphere consisting of 5% CO2 and 95% air.
(§2) Antiproliferation Assays: Cells were plated in a 96-well culture plate with 2000-8000 cells per well. The compounds were prepared in DMSO and used to treat cells in a final concentration of less than 1% DMSO. Compound treatment started after overnight incubation of cells (T0). […] Compound was added to the plate in triplicate wells, and the plates were then incubated for 96 hours. DMSO (compound diluent) was also included and added to the plate in control wells. Cell viability was then determined by MTS assay using the CellTiter 96® aqueous non-radioactive cell proliferation assay system (Promega, Madison, Wis. 53711 USA). A plate reader (Vmax, Molecular Devices, Sunnyvale Calif. 94089 USA) was used to determine the optical densities, and the results were used to deduce concentration-response curves. […] The results were analyzed using linear regression software (GraphPad Prism 5; GraphPad Software Inc. La Jolla Calif. 92037 USA).

[2] = test system: caspase-3, PARP, Mcl-1 and XIAP; assay: Immunoblot of apoptotic pathway proteins; assay type: cell-based; conditions: 1 μM, 24 or 48 hours
Description: Immunoblot Analysis: For immunoblotting experiments, cells were plated in a 6-well culture plate and cultured overnight. Cells were incubated with the test compounds for the indicated time and whole cell lysate was harvested by adding 1×SDS-PAGE Sample Buffer (62.5 mM Tris-HCl (pH 6.8 at 25° C.), 2% w/v SDS, 10% glycerol, 50 mM DTT, and 0.01% w/v bromophenol blue or phenol red). Proteins were separated by SDS-PAGE electrophoresis and transferred to PVDF membrane. Protein expression was immunoblotted using various primary antibodies and detected using Immobilon Western Chemiluminescent HRP Substrate (Millipore, Billerica Mass. 01821 USA). Antibodies used include anti-Cleaved Caspase3, (Rabbit, Cell Signaling Technology, Danvers Mass. 01923 USA); anti-PARP (Rabbit, Cell Signaling Technology, Danvers Mass. 01923 USA); anti-MCL-1 (mouse, BD Biosciences, San Jose Calif. 95131 USA); anti-XIAP (rabbit, Cell Signaling Technology, Danvers Mass. 01923 USA); anti-Bcl-2 (mouse, Santa Cruz Biotechnology, Santa Cruz Calif. 95060); anti-Cyclin BI (mouse, BD Biosciences, San Jose Calif. 95131 USA); anti-Cyclin D1 (mouse, Santa Cruz Biotechnology, Santa Cruz Calif. 95060); Anti-Nek2 (mouse, BD Biosciences, San Jose Calif. 95131 USA); Anti-HEC1, (rabbit, GeneTex, Inc., Irvine Calif. 92606 USA); and anti-actin (mouse, Millipore, Billerica Mass. 01821 USA).
100 nM Taxol was used as a positive control drug for apoptosis.

[3] = test system: MDA-MB-468; assay: Antiproliferation assay (MTS), MDA-MB-468 cells; assay type: cell-based; conditions: Homo sapiens, MDA-MB-468, 96 h
Description: as §1, §2

[4] = test system: MDA-MB-231; assay: Antiproliferation assay (MTS), MDA-MB-231 cells; assay type: cell-based; conditions: Homo sapiens, MDA-MB-231, 96 h
Description: as §1, §2

[5] = test system: Hela; assay: Antiproliferation assay (MTS), HeLa cells; assay type: cell-based; conditions: Homo sapiens, 96 h, Table 1, read-out: Antiproliferative IC50 Hela
Description: as §1, §2

[6] = test system: Caco-2 cell monolayers; assay: Caco-2 cell permeability; assay type: in vitro ADME; conditions: 10 μM, 2 hour, both directions
Description: Here, Caco-2 cell line (cat. HTB-37TM) was purchased from the ATCC. Cells were cultivated in T-75 flasks in a cell culture incubator set at 37° C., 5% CO2, 95% relative humidity. Cells were allowed to grow to reach 80-90% confluence before seeding. […] The cells were grown in culture medium consisting of Dulbecco's modified Eagle's medium supplemented with 10% fetal bovine serum, 100 U/mL penicillin and 100 μg/mL streptomycin. The culture medium was replaced every 2 days and the cells were maintained at 37° C., 95% relative humidity and 5% CO2.
For a quality integrity control of the monolayers of seeded cells, the Lucifer yellow (LY) transport experiment was performed to evaluate monolayer integrity. As for a quality control of each filter, the transepithelial electrical resistance (TEER) was measured before the start of and at the end of transport experiments. Physiologically and morphologically well developed Caco-2 cell monolayers with TEER values greater than 400 Ωcm^2 were used for the studies.
The solution volumes in apical and basolateral chambers were set to 0.4 and 0.6 ml respectively. Samples were taken from both the apical and basolateral compartment at the end of the 2 hour incubation at 37° C. […] The excitation and emission wavelengths were 490 nm and 530 nm, respectively.

[7] = target: T1, hERG potassium channels (Homo sapiens, UniProt Q12809); assay: [3H]Astemizole competitive binding assay, hERG; conditions: [3H]-astemizole displacement, hERG membrane protein
T1 construct: purchased PerkinElmer
Description: Here, [3H] Astemizole competitive binding assays were performed to determine the ability of compounds to displace the known radioligand [3H]-astemizole from the hERG potassium channels, following standard protocol with minor modifications. In brief, assays were performed in 200 μl of binding buffer (50 mM HEPES, pH 7.4, 60 mM KCl, and 0.1% BSA) containing 1.5 nM of [3H]astemizole, 3 μg/well of hERG membrane protein (PerkinElmer), and TAI-1 (in 1% DMSO final concentration) at 27° C. for 60 min. Nonspecific binding (NSB) was determined in the presence of 10 μM astemizole. […] Binding was terminated by rapid filtration onto polyethyleneimine-presoaked, buffer-washed UniFilter-96, GF/C (Perkin Elmer) using a vacuum manifold (Porvair Sciences). Captured radiolabel signal was detected using TopCount NXT (Perkin Elmer). […] All results are derived from two independent experiments.

[8] = test system: Huh-7 xenograft; assay: Mouse xenograft study, Huh-7 liver cancer; assay type: in vivo; conditions: Huh-7 liver cancer xenograft, nude mice
[9] = test system: BT474 xenograft; assay: Mouse xenograft study, BT474 breast cancer; assay type: in vivo, nude mice; conditions: BT474 breast cancer xenograft, nude mice
Description: (§3) Mouse Xenograft Studies: Xenograft studies adapted from a previous published protocol (Wu et al, Cancer Res. 2008 Oct. 15; 68(20):8393-9). Female BALB/c nude (nu/nu) mice (5-8 weeks) were obtained from Lasco (Industrial Park, Tai-Ping Area, Taichung City, Taiwan). The animals were maintained under specific pathogen-free conditions, and food and water were supplied ad libitum. Housing and all procedures involving animals were performed according to protocols approved by the IACUC in DCB. Nude mice were inoculated with 17-β-estradiol pellets 72 to 96 h before implantation of BT-474 cells. For subcutaneous implantation of BT-474 cells, cells (1×10^7 in matrix gel/animal) were injected subcutaneously into the right subaxillary region. Treatment started when average tumor volume reached about 200 mm^3; mice were treated (p.o., QD/28 cycles in total) with vehicle A (0.5% methylcellulose), or candidate compounds formulated in vehicle A (10-50 mg/kg body weight). Perpendicular diameter measurement of each tumor were made with digital calipers and the volume of the tumor calculated using formula (L×W×W)/2, in which L and W represent the length and the width, respectively. Body weights were measured three times weekly.
(§4) The in vivo effectiveness of contemplated compounds in the reduction of tumor volume in nude mice is readily apparent.
(§5) Development of resistance to treatment in advanced stage tumors is a well known phenomenon. Activity of select Hec1 inhibitor in such late stage tumors was determined by re-dosing of BT474 xenografted animals that had previously subjected to 35 days of treatment with 110095 (compound 27 of Table 1). Re-treatment with 110095 was starting on day 42 and continued for 21 days.

[10] = test system: MDA-MB-231 xenograft; assay: Mouse xenograft study, MDA-MB-231 breast cancer; assay type: in vivo; conditions: MDA-MB-231 breast cancer xenograft, nude mice
[11] = Body weight in mouse xenograft studies; assay type: in vivo, nude mice; conditions: xenograft studies FIG. 7A-7D, nude mice
Description: as §3, §4, §5

[12] = test system: cancer cells; assay: DNA content analysis (propidium iodide, FACS); assay type: cell-based
Description: DNA Content Analysis: Cells were plated in a 10-cm culture plate and cultured overnight. Cells were incubated with the compound for the indicated time and collected at the indicated time points. Cells were fixed with 70% ethanol overnight, stained with propidium iodide solution (1.25 mg/ml propidium iodide (Sigma) and 20 μl/ml […] in PBS) and subjected to fluorescence activated cell sorting (FACS). The results were analyzed by Cell Quest software (BD Biosciences, San Jose Calif. 95131 USA).

[13] = Table 1, read-out: Antiproliferative IC50 MDA-MB-468
[14] = read-out: Antiproliferative IC50 MDA-MB-231, Table 1

T1 sequence (Q12809 whole entry): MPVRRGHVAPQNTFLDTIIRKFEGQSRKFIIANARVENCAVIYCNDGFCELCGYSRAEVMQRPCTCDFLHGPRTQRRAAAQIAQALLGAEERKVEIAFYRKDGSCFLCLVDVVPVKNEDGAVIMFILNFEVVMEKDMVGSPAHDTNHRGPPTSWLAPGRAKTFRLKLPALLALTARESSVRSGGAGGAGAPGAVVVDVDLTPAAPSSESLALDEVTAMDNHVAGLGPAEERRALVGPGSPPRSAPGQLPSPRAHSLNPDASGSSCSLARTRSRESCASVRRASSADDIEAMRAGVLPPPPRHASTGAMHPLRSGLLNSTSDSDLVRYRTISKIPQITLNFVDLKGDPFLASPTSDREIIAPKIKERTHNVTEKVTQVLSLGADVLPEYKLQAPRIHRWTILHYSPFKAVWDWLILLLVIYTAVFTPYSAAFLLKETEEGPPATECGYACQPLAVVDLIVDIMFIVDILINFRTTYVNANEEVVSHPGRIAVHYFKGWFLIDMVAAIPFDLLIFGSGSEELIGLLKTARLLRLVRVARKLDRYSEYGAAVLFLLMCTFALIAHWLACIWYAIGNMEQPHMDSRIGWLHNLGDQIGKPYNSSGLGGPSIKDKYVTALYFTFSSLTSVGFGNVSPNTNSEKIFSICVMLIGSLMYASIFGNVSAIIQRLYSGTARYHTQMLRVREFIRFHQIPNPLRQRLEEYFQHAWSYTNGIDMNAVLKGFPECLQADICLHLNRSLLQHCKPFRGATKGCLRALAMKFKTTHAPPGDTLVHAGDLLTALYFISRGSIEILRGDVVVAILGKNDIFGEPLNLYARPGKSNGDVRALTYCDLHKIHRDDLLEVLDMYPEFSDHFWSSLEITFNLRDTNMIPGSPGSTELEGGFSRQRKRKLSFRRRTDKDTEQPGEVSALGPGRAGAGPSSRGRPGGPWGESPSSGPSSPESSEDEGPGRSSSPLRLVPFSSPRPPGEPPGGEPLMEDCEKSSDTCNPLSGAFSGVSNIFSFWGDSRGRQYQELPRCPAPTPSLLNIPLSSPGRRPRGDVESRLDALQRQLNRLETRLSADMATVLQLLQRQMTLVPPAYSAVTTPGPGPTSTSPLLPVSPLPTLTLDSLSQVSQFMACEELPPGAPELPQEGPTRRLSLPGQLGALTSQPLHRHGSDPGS

SMILES | IC50 [1] [µM] | levels of apoptotic (caspase-3, PARP) and anti-apoptotic (Mcl-1, XIAP) proteins [2] | IC50 [3, 13] [µM] | IC50 [4, 14] [µM] | IC50 [5] [µM] | IC50 [7] [µM] | further results
Cc1cc(Sc2cnccn2)cc(C)c1-c1csc(NC(=O)c2ccnc(F)c2)n1 [Compound 19, N-{4-(2,6-Dimethyl-4-(pyrazin-2-ylthio)phenyl)thiazol-2-yl}-2-fluoroisonicotinamide] | 0.0376 | cleavage of the apoptotic proteins accompanied by down-regulation of the anti-apoptotic proteins | 0.0601 | 0.032 | 0.0356 | – | –
COCCOc1ccc(Oc2cc(C)c(-c3csc(NC(=O)c4ccnc(F)c4)n3)c(C)c2)cc1 [Compound 20, 2-Fluoro-N-(4-{4-(4-(2-methoxyethoxy)phenoxy)-2,6-dimethylphenyl}thiazol-2-yl)isonicotinamide] | 0.0141 | cleavage of the apoptotic proteins accompanied by down-regulation of the anti-apoptotic proteins | 0.0104 | 0.0075 | 0.0109 | – | –
COCCOc1cnc(Oc2cc(C)c(-c3csc(NC(=O)c4ccncc4)n3)c(C)c2)cn1 [Compound 22, N-(4-{4-(5-(2-Methoxyethoxy)pyrazin-2-yloxy)-2,6-dimethylphenyl}thiazol-2-yl)isonicotinamide] | – | – | – | – | – | > 10 | Caco-2 permeability [6]: moderate Caco-2 permeability
COc1cnc(Sc2cc(C)c(-c3csc(NC(=O)c4ccncc4)n3)c(C)c2)cn1 [Compound 25, N-{4-(4-(5-Methoxypyrazin-2-ylthio)-2,6-dimethylphenyl)thiazol-2-yl}isonicotinamide] | – | – | – | – | – | > 10 | –
COc1ccc(Oc2cc(C)c(-c3csc(NC(=O)c4ccncc4)n3)c(C)c2)cc1 [II-95, N-(4-(4-(4-Methoxyphenoxy)-2,6-dimethylphenyl)thiazol-2-yl)isonicotinamide] | – | – | – | – | – | – | xenograft tumor outgrowth [8]: inhibition of xenograft tumor outgrowth; xenograft tumor outgrowth [9]: inhibition of xenograft tumor outgrowth; xenograft tumor outgrowth [10]: inhibition of xenograft tumor outgrowth; body weight [11]: body weight remained constant
COc1ccc(Oc2cc(C)c(-c3csc(NC(=O)c4ccnc(F)c4)n3)c(C)c2)cc1 [II-98, 2-Fluoro-N-(4-(4-(4-methoxyphenoxy)-2,6-dimethylphenyl)thiazol-2-yl)isonicotinamide] | – | – | – | – | – | – | IC50 ([3]; Table 2, read-out: Antiproliferative IC50 MDA-MB-468): 0.04 µM; IC50 ([4]; read-out: Antiproliferative IC50 MDA-MB-231, Table 2): 0.02 µM; sub-G1 population (apoptotic cells) [12]: increase in the sub-G1 population
